Patent publication US11897862B2 (Gilead Sciences, Inc., priority 2022, dated 2024)

Assays:
Assay type in all cases: cell-based
IKZF2 [1] = molecular target: T1, IKZF2 (Homo sapiens, UniProt Q96SW2+Q9UKS7); assay: HEK293 HiBiT in vitro degradation of IKZF2; parameters: expressed in transfected cells; conditions: for DC50: 18-24 hr incubation, normalized to DMSO control, read-out: IKZF2 EC50; for IKZF2 Dmax / Dmax: maximum degradation at the highest concentration tested
How it was run: (§1)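 Cellular target level is measured as luminescence from an 11-residue HiBiT tag fused via a linker to the C-terminus of IKZF1, IKZF2 or SALL4 in stable Flp-In T-REx HEK293 pools. Reporter expression is induced overnight with doxycycline ([…] final), and compounds act for 18-24 h before lytic detection.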
Target sequence in this assay (Q9UKS7 1-500 isoform Q9UKS7-2): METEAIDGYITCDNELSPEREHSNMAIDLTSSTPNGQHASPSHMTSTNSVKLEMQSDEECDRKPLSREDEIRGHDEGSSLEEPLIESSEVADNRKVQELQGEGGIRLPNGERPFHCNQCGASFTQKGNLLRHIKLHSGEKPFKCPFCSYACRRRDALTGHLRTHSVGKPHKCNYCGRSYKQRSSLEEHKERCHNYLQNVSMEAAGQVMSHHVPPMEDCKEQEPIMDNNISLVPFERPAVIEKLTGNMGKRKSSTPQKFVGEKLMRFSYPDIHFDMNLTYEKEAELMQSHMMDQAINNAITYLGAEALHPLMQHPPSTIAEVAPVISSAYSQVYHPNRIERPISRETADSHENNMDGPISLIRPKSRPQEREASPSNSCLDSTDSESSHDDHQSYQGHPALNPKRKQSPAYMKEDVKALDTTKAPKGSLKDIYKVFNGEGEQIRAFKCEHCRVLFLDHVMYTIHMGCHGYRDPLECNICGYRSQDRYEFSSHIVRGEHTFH
Target sequence in this assay (Q96SW2 whole entry, the tested form may be a part): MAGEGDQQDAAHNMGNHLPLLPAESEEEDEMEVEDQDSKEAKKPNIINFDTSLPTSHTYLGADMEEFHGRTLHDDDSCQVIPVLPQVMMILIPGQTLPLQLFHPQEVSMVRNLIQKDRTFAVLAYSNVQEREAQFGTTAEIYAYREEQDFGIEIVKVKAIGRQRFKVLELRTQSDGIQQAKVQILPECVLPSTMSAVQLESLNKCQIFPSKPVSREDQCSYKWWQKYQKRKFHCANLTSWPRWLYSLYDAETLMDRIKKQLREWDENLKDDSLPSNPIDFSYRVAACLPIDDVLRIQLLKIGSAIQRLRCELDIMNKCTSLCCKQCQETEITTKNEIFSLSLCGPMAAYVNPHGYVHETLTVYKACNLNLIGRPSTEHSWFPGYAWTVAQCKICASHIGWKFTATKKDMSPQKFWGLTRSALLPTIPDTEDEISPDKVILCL
Target sequence in this assay (Q16531 whole entry partner, the tested form may be a part): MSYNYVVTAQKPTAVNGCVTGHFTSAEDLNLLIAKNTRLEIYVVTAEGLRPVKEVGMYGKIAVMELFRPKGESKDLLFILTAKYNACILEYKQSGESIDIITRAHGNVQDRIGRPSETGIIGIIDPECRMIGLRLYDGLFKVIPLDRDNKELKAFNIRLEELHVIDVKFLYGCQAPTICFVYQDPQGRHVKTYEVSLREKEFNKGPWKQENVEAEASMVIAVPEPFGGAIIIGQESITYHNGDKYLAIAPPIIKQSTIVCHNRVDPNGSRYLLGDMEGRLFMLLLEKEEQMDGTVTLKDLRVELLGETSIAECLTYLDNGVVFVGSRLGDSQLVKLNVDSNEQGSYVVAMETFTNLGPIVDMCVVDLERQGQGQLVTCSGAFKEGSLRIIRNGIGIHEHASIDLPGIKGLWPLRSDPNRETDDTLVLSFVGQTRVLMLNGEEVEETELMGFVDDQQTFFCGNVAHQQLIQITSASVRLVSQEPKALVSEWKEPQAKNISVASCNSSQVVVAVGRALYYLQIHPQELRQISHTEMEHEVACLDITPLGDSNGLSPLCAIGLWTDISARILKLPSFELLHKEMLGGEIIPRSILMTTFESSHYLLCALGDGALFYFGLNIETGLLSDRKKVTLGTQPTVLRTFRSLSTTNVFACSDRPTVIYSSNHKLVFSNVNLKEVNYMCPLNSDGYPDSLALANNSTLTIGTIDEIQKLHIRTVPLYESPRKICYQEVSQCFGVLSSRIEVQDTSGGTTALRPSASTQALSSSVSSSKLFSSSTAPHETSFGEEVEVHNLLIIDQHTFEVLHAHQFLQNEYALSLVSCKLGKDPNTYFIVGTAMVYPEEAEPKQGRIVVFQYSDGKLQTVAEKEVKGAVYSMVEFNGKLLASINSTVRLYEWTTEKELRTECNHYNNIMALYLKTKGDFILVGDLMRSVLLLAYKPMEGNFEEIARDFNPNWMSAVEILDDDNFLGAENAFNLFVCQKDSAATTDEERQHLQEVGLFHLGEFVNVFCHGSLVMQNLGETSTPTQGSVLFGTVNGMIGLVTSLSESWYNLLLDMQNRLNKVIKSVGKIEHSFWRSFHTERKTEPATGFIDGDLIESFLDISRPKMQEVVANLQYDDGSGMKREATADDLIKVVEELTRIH

IKZF1 = molecular target: T2, IKZF1 (Homo sapiens, UniProt Q13422+Q96SW2); assay: HEK293 HiBiT in vitro degradation of IKZF1; conditions: for DC50: 18-24 hr incubation, normalized to DMSO control, read-out: IKZF1 EC50; for Dmax: HEK293, HEK293 HiBiT
T2 construct: expressed in transfected cells
How it was run: as §1

SALL4 = molecular target: T3, SALL4 (Homo sapiens, UniProt Q96SW2+Q9UJQ4); assay: HEK293 HiBiT in vitro degradation of SALL4; conditions: for DC50: 18-24 hr incubation, normalized to DMSO control, read-out: SALL4 EC50
T3 construct: expressed in transfected cells
Description: In vitro degradation of IKZF1, IKZF2, and SALL4 was measured using HiBiT protein tagging and detection technology (Promega).
HiBit technology was used to develop the quantitative assays to measure the cellular IKZFs level by tagging an 11 amino acid HiBit peptides […] to the protein of interest. Reporter plasmids were generated by fusing a linker sequence ([…]) followed by the HiBit tag at the C-terminus of IKZF1, IKZF2, and SALL4. The fusion fragments were subsequently cloned into pcDNA5 pcDNA™5/FRT/TO plasmids (Thermo Fisher, cat #V652020) downstream of the tetracycline operator. The resulting plasmids were co-transfected with pOG44 Flp-Recombinase Expression Vector (Thermo Fisher, cat #V600520) into Flp-In™ T-REx HEK293 line (Thermo Fisher, cat #R78077) and a stable cell pool was selected by adding 100 µg/ml of Hygromycin (Thermo Fisher, cat #10687010). The reporter cell enabled Tet-On inducible reporter expression from a single copy of the integrated gene.
On Day 1, Cells were grown to ˜80% confluency in tissue culture medium (DMEM Glutamax (Gibco10569), 10% Tet free FBS (Takara 631106), and PenStrep Glutamin (Gibco 10378)) in tissue culture flasks. Doxycycline was then added to a final concentration of […] to induce reporter expression at 37° C. overnight.
On Day 2, 125 nL of serially-diluted solution of testing compounds were dispensed into 384-well white solid assay plates via ECHO acoustic liquid handler. Cells were lifted by 0.25% Trypsin (Gibco 25200) then pelleted by centrifugation (Beckman Avanti J-E) at 500×g for 5 min. Cell pellets were resuspended in TC medium at the concentration of 3e5/mL and 25 μL of cell suspension were added into each well of compound-spotted plates. The plates were returned to a 37° C. incubator overnight (18-24 hr).
On Day 3, assay plates were removed from the tissue culture incubator and 25 μL of Nano-Glo lytic detection system (Promega, cat #N3030) was added to each well. Plates were incubated at r.t. for 3 min with shaking, and luminescence was read using an Envision reader (Perkin Elmer).
To assess the IKZF1, IKZF2, and SALL4 degrader potential of exemplified compounds of this disclosure and certain Reference Compounds EC50 and Dmax values were determined for the compounds of Examples 1 to 383 and Reference Compounds A-1, B-1, B-2, B-3, B-4, and C-1 in the HiBiT assays. Asterisks (*) indicate examples for which the data shown represents an average of n≥3.

IKZF2 [2] = molecular target: T1, IKZF2; assay: Human whole blood IKZF2 degradation (flow cytometry, CD4/CD25/Foxp3+ Treg cells); parameters: endogenous in cells; conditions: 24 hrs incubation, IKZF2 MFI in CD4/CD25/Foxp3+ Treg cells, flow cytometry; for DC50: read-out: IKZF2 EC50
How it was run: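 Fresh healthy-donor human whole blood stimulated with CD3/CD28 activator and serially diluted compound for 24 hrs at 37° C. IKZF2 MFI in CD4/CD25/Foxp3+ Tregs (IKZF1 MFI in CD4+ T cells) measured by flow cytometry after RBC lysis, fixation, permeabilization. EC50 and Dmax versus DMSO wells.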
Target sequence in this assay (Q9UKS7 whole entry, the tested form may be a part): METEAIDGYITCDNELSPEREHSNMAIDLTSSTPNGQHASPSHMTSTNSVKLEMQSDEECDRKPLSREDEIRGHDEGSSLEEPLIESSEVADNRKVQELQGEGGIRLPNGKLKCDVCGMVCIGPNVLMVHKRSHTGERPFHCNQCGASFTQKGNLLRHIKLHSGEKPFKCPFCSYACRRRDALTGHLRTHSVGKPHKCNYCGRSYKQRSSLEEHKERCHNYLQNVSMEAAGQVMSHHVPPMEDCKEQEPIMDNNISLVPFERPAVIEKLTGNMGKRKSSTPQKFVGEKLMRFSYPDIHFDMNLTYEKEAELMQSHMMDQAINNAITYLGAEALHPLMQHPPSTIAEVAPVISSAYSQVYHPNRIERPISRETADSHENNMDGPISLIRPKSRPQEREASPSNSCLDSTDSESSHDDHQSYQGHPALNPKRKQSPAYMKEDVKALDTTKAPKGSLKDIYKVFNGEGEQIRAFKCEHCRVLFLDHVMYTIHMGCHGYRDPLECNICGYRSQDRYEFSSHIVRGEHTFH
Target sequence in this assay (Q96SW2 whole entry, the tested form may be a part): as the sequence (Q96SW2 whole entry, the tested form may be a part) above
Target sequence in this assay (Q16531 whole entry partner, the tested form may be a part): as the sequence (Q16531 whole entry partner, the tested form may be a part) above

[3] = maximum degradation at the highest concentration tested

T3 sequence (Q9UJQ4 whole entry): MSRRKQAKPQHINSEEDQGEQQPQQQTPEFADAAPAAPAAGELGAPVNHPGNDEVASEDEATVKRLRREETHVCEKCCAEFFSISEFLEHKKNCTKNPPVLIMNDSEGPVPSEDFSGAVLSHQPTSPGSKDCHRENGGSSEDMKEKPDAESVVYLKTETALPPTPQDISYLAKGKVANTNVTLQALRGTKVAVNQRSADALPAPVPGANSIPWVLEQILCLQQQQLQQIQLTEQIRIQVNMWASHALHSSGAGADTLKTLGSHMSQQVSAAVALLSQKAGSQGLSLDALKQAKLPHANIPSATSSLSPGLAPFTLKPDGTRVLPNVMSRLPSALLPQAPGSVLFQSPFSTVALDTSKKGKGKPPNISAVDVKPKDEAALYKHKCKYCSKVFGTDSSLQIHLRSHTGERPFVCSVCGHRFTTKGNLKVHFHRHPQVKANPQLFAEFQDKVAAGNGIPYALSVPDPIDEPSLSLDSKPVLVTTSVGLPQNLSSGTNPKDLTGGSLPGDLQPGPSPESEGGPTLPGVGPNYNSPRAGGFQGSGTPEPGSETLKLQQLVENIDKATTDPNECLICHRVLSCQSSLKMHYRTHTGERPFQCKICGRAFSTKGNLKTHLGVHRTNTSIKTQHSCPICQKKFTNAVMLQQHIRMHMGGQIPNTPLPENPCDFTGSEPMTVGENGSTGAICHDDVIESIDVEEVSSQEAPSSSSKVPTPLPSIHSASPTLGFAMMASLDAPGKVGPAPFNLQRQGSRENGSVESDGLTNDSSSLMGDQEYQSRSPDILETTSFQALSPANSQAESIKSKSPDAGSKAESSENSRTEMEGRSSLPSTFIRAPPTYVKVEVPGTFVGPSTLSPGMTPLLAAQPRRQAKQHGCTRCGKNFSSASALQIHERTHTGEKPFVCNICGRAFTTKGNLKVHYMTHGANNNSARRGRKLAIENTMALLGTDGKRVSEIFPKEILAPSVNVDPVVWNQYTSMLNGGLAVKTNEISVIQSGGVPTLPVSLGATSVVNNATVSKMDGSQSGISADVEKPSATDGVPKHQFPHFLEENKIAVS
T3 sequence (Q96SW2 whole entry): as the sequence (Q96SW2 whole entry, the tested form may be a part) above
T3 sequence (Q16531 whole entry partner): as the sequence (Q16531 whole entry partner, the tested form may be a part) above
T2 sequence (Q13422 whole entry): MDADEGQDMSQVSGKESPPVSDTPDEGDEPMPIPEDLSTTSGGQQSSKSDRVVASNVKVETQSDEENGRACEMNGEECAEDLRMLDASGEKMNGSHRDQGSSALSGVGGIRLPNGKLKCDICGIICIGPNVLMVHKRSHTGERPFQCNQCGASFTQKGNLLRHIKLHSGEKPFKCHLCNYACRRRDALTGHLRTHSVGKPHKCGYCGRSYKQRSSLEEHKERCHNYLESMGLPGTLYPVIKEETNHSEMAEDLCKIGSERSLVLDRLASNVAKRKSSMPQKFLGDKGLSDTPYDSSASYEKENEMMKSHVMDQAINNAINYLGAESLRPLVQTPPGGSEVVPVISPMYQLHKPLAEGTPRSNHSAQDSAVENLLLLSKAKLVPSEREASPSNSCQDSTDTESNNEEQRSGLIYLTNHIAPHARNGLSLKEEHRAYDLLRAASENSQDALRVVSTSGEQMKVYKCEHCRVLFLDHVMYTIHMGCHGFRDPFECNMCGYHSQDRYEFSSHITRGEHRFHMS
T2 sequence (Q96SW2 whole entry): as the sequence (Q96SW2 whole entry, the tested form may be a part) above
T2 sequence (Q16531 whole entry partner): as the sequence (Q16531 whole entry partner, the tested form may be a part) above

DC50 (IKZF2 [1]; HEK293 HiBiT) [nM] | IKZF2 Dmax (IKZF2 [1]; HEK293 HiBiT) [%] | DC50 (IKZF1; HEK293 HiBiT) [nM] | DC50 (SALL4) [nM] | Dmax (IKZF2 [1]; HEK293, HEK293 HiBiT) [%] | Dmax (IKZF1; [3]) [%] | Dmax (IKZF2 [2]) [%] | DC50 (IKZF2 [2]) [nM] | IKZF1 Dmax (IKZF1; HEK293 HiBiT, maximum degradation at the highest concentration tested) [%] | IKZF2 Dmax (IKZF2 [2]) [%] | Dmax (SALL4; [3]) [%] | Compound | Dmax (IKZF2 [1]; HEK293 HiBiT) [%]
3 | 96 | > 1000 | > 10000 |  |  |  |  |  |  |  | COCC1CCC(N[C@H]2CCCO[C@@H]2Cc2ccc3c(c2F)CN(C2CCC(=O)NC2=O)C3=O)CC1 (single isomer, unassigned) [Example 265] | 
4 |  | 138 | > 10000 | 98 | 27 | 96 | 6 |  |  |  | O=C1CCC(N2Cc3c(ccc(C[C@H]4OCCC[C@@H]4N[C@H]4CC[C@@H](F)CC4)c3F)C2=O)C(=O)N1 (single isomer, unassigned) [Example 290] | 
7 |  | > 1000 | > 10000 | 95 |  |  |  |  |  |  | COC1(C)CCC(N[C@H]2CCCO[C@@H]2Cc2ccc3c(c2F)CN(C2CCC(=O)NC2=O)C3=O)CC1 (single isomer, unassigned) [Example 316] | 
3 |  | 16 | > 10000 | 95 | 71 |  |  |  |  |  | CC1CC[C@H](NC2CCC(F)(F)CC2)[C@@H](Cc2ccc3c(c2)CN(C2CCC(=O)NC2=O)C3=O)C1 (single isomer, unassigned) [Example 324] | 
3 | 96 | 535 | > 10000 |  |  |  |  |  |  |  | O=C1CCC(N2Cc3c(ccc(C[C@H]4OCCC[C@@H]4NC4CCC(OC(F)F)CC4)c3F)C2=O)C(=O)N1 (single isomer, unassigned) [Example 327] | 
3 |  | 37 | > 10000 | 94 | 28 |  |  |  |  |  | O=C1CC[C@H](N2Cc3c(ccc(C[C@H]4OCCC[C@@H]4N[C@H]4CC[C@H](C(F)F)CC4)c3F)C2=O)C(=O)N1 (single isomer, unassigned) [Example 330] | 
4 |  | 448 | > 10000 | 96 |  |  |  |  |  |  | O=C1CC[C@@H](N2Cc3c(ccc(C[C@H]4OCCC[C@@H]4N[C@H]4CC[C@H](C(F)F)CC4)c3F)C2=O)C(=O)N1 (single isomer, unassigned) [Example 331] | 
6 |  | > 1000 | > 10000 | 95 |  |  |  |  |  |  | O=C1CC[C@H](N2Cc3c(ccc(C[C@H]4OCCC[C@@H]4NC4CCC(F)(F)CC4)c3F)C2=O)C(=O)N1 (single isomer, unassigned) [Example 332] | 
9 |  | 210 | > 10000 | 94 |  |  |  |  |  |  | O=C1CC[C@@H](N2Cc3c(ccc(C[C@H]4OCCC[C@@H]4NC4CCC(F)(F)CC4)c3F)C2=O)C(=O)N1 (single isomer, unassigned) [Example 333] | 
1 |  | 13 | > 10000 | 97 | 59 |  |  |  |  |  | O=C1CC[C@H](N2Cc3c(ccc(C[C@H]4CCCC[C@@H]4NC4CCC(F)(F)CC4)c3F)C2=O)C(=O)N1 (single isomer, unassigned) [Example 334] | 
1 |  | 16 | > 10000 | 97 | 62 |  |  |  |  |  | O=C1CC[C@@H](N2Cc3c(ccc(C[C@H]4CCCC[C@@H]4NC4CCC(F)(F)CC4)c3F)C2=O)C(=O)N1 (single isomer, unassigned) [Example 335] | 
11 |  | 114 | > 10000 | 97 | 39 |  |  |  |  |  | O=C1CCC(N2Cc3cc(C[C@H]4CCCC[C@@H]4NC4CCc5c(C(F)(F)F)n[nH]c5C4)ccc3C2=O)C(=O)N1 (single isomer, unassigned) [Example 362] | 
1 | 97 | 50 | > 10000 |  |  |  |  | 56 |  |  | O=C1CCC(N2Cc3cc(C[C@H]4CCCC[C@@H]4NC4CCc5c(C(F)(F)F)n[nH]c5C4)ccc3C2=O)C(=O)N1 (single isomer, unassigned) [Example 363] | 
3 |  | 45 | > 10000 | 96 | 37 |  |  |  |  |  | O=C1CCC(N2Cc3c(ccc(C[C@H]4OCCC[C@@H]4NC4CCC5(CC4)CC5(F)F)c3F)C2=O)C(=O)N1 (single isomer, unassigned) [Example 364] | 
17 |  | > 1000 | > 10000 | 85 |  |  |  |  |  |  | O=C1CCC(N2Cc3cc(C[C@H]4OCCC[C@@H]4NC4CCC(F)CC4)ccc3C2=O)C(=O)N1 (single isomer, unassigned) [Example 366] | 
15 | 87 | > 1000 | > 10000 |  |  |  |  |  |  |  | O=C1CCC(N2Cc3cc(C[C@H]4OCCC[C@@H]4NC4CCC(F)CC4)ccc3C2=O)C(=O)N1 (single isomer, unassigned) [Example 367] | 
1 |  | 79 | > 10000 | 97 | 42 |  |  |  |  |  | O=C1CCC(N2Cc3cc(C[C@H]4C[C@H](F)CC[C@@H]4NC4CCC(F)(F)CC4)ccc3C2=O)C(=O)N1 (stereo partly drawn) [Example 169] | 
1 |  | 35 | > 10000 | 97 | 62 |  |  |  |  |  | [2H]C1(N[C@H]2CCCC[C@@H]2Cc2ccc3c(c2F)CN(C2CCC(=O)NC2=O)C3=O)CCC(F)(F)CC1 (stereo partly drawn) [Example 209] | 
18 |  | > 1000 |  | 96 |  | 95 | 6 |  |  |  | CC1(C)CC(N[C@H]2CCCO[C@@H]2Cc2ccc3c(c2F)CN(C2CCC(=O)NC2=O)C3=O)CCO1 (stereo partly drawn) [Example 222] | 
12 | 96 | > 1000 |  |  |  |  | 3 |  | 95 |  | CC1(C)CC(N[C@H]2CCCO[C@@H]2Cc2ccc3c(c2F)CN(C2CCC(=O)NC2=O)C3=O)CCO1 (stereo partly drawn) [Example 223] | 
14 |  | > 1000 |  | 96 |  | 95 | 4 |  |  |  | O=C1CCC(N2Cc3c(ccc(C[C@H]4OCCC[C@@H]4NC4CCOCC4)c3F)C2=O)C(=O)N1 (stereo partly drawn) [Example 305] | 
12 |  | > 1000 | > 10000 | 96 |  |  |  |  |  |  | O=C1CCC(N2Cc3c(ccc(C[C@H]4OCCC[C@@H]4NC4CCN(CC(F)(F)F)CC4)c3F)C2=O)C(=O)N1 (stereo partly drawn) [Example 308] | 
6 |  | 41 | > 10000 | 93 | 51 |  |  |  |  |  | CO[C@H]1CC[C@H](Cc2ccc3c(c2)CN(C2CCC(=O)NC2=O)C3=O)[C@@H](NC2CCC(F)(F)CC2)C1 (stereo partly drawn) [Example 344] | 
3 |  | 323 | 3100 | 99 | 47 |  |  |  |  | 47 | O=C1CCC(N2Cc3cc(C[C@H]4CCCC[C@@H]4NC4CCc5[nH]nc(C(F)(F)F)c5C4)ccc3C2=O)C(=O)N1 (stereo partly drawn) [Example 352] | 
5 |  | 73 | > 10000 | 97 | 48 |  |  |  |  |  | Cn1ncc2c1CCC(N[C@H]1CCCC[C@@H]1Cc1ccc3c(c1)CN(C1CCC(=O)NC1=O)C3=O)C2 (stereo partly drawn) [Example 377] | 

Compound | DC50 (IKZF2 [1]; HEK293 HiBiT) [nM] | IKZF2 Dmax (IKZF2 [1]; HEK293 HiBiT) [%] | DC50 (IKZF1; HEK293 HiBiT) [nM] | DC50 (SALL4) [nM] | Dmax (IKZF2 [1]; HEK293, HEK293 HiBiT) [%] | Dmax (IKZF1; [3]) [%] | Dmax (IKZF2 [2]) [%] | DC50 (IKZF2 [2]) [nM] | IKZF1 Dmax (IKZF1; HEK293 HiBiT, maximum degradation at the highest concentration tested) [%] | IKZF2 Dmax (IKZF2 [2]) [%] | Dmax (SALL4; [3]) [%] | Dmax (IKZF2 [1]; HEK293 HiBiT) [%]
O=C1CCC(N2Cc3c(ccc(C[C@H]4OCCC[C@@H]4NC4CCN(CC(F)F)CC4)c3F)C2=O)C(=O)N1 (stereo partly drawn) [Example 309] | 16 |  | > 1000 | > 10000 |  |  |  |  |  |  |  | 96
